From patent US20260022142A1, “MACROCYCLIC IMMUNOMODULATORS” (Bristol-Myers Squibb Company, priority 2022, published 2026)
Bridge positions count the residues as written; N and C are the ends. Square brackets hold non-standard residues; d marks the D form. Peptide text beside a SMILES is read from it. * marks the point of attachment. ξ: configuration not given here. Phe(3-CF3) = N[C@@H](Cc1cccc(C(F)(F)F)c1)C(=O)O; Phe(4-COOH) = N[C@@H](Cc1ccc(C(=O)O)cc1)C(=O)O; Bip = N[C@@H](Cc1ccc(-c2ccccc2)cc1)C(=O)O; NH(CH2)14COOH = O=C(O)CCCCCCCCCCCCCCN*; Phe(3-Me) = Cc1cccc(C[C@H](N)C(=O)O)c1; NH(CH2)12COOH = O=C(O)CCCCCCCCCCCCN*; Val(3-OH) = CC(C)(O)[C@H](N)C(=O)O; Cha = N[C@@H](CC1CCCCC1)C(=O)O; Thr(3ξ) = CC(O)[C@H](N)C(=O)O; Carboxymethyl = O=C(O)C*; Orn = NCCC[C@H](N)C(=O)O; Dab = NCC[C@H](N)C(=O)O; AEEA = NCCOCCOCC(=O)O

Biological target: T1, PD-1/PD-L1 interaction (PE-labeled human PD-L1-Ig binding to Jurkat cell line over-expressing human PD-1) (Homo sapiens, UniProt Q15116)
T1 construct: expressed in transfected cells; host or cells: Jurkat
Assay: Jurkat-PD-1 Cell Binding High-Content Screening Assay (CBA)
Type: cell-based
Conditions: Jurkat cell line over-expressing human PD-1; PE-labeled PD-L1-Ig 20 nM final; read-out: Jurkat hPD1-PDL1 IC50
In short: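 First, compound is added to PD-1-expressing Jurkat cells in serum-containing DMEM and left 2 h at 37° C. Next, PE-conjugated PD-L1-Ig is introduced at 20 nM final concentration for 1 hour. Finally, cells are fixed in 4% paraformaldehyde with Hoechst 33342, washed and imaged.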

T1 sequence (Q15116 25-288): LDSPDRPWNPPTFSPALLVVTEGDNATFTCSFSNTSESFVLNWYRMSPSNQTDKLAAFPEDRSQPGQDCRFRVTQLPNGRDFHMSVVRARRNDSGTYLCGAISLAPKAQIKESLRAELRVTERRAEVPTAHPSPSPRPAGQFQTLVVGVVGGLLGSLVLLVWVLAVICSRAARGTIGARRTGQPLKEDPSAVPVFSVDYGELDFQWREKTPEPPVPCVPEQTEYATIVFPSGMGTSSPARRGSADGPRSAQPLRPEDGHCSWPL

Row | Compound | IC50 [nM]
1 | Cc1cccc(C[C@@H]2NC(=O)[C@H](CC(=O)O)NC(=O)[C@H](Cc3ccc(OCC(=O)O)cc3)NC(=O)[C@H](Cc3ccc(OCC(=O)O)cc3)NC(=O)CSC[C@@H](C(=O)N[C@@H](CCN)C(=O)NCCOCCOCC(=O)NCCCCCCCCCCCCC(=O)O)NC(=O)[C@H](CO)NC(=O)[C@H](C(C)(C)O)NC(=O)[C@H](CC3CCCCC3)NC(=O)[C@H](CCN)NC(=O)[C@@H](CC(C)C)NC(=O)[C@H](CCCN)NC(=O)[C@H](Cc3ccc(C(=O)O)cc3)NC(=O)[C@H](Cc3ccc(-c4ccccc4)cc3)NC(=O)[C@H](Cc3ccc(C(=O)O)cc3)NC2=O)c1 [Compound 3842] ({CH2CO}-Y(Carboxymethyl)Y(Carboxymethyl)D[Phe(3-Me)][Phe(4-COOH)][Bip][Phe(4-COOH)][Orn][dL][Dab][Cha][Val(3-OH)]SC[Dab][AEEA]-{NH(CH2)12COOH}; thioether N-14) | 16.1
2 | Cc1cccc(C[C@@H]2NC(=O)[C@H](CC(=O)O)NC(=O)[C@H](Cc3ccc(OCC(=O)O)cc3)NC(=O)[C@H](C(C)O)NC(=O)CSC[C@@H](C(=O)N[C@@H](CCN)C(=O)NCCOCCOCC(=O)NCCCCCCCCCCCCC(=O)O)NC(=O)[C@H](CC(=O)O)NC(=O)[C@H](C(C)C)NC(=O)[C@H](CC3CCCCC3)NC(=O)[C@H](CCN)NC(=O)[C@@H](CC(C)C)NC(=O)[C@H](CCCN)NC(=O)[C@H](Cc3ccc(C(=O)O)cc3)NC(=O)[C@H](Cc3ccc(-c4ccccc4)cc3)NC(=O)[C@H](Cc3ccc(C(=O)O)cc3)NC2=O)c1 (stereo partly drawn) [Compound 3843] ({CH2CO}-[Thr(3ξ)]Y(Carboxymethyl)D[Phe(3-Me)][Phe(4-COOH)][Bip][Phe(4-COOH)][Orn][dL][Dab][Cha]VDC[Dab][AEEA]-{NH(CH2)12COOH}; thioether N-14) | 40.7
3 | Cc1cccc(C[C@@H]2NC(=O)[C@H](CC(=O)O)NC(=O)[C@H](Cc3ccc(OCC(=O)O)cc3)NC(=O)[C@H](C(C)O)NC(=O)CSC[C@@H](C(=O)N[C@@H](CCN)C(=O)NCCCCCCCCCCCCC(=O)O)NC(=O)[C@H](CO)NC(=O)[C@H](C(C)(C)O)NC(=O)[C@H](CC3CCCCC3)NC(=O)[C@H](CCN)NC(=O)[C@@H](CC(C)C)NC(=O)[C@H](CCCN)NC(=O)[C@H](Cc3ccc(OCC(=O)O)cc3)NC(=O)[C@H](Cc3ccc(-c4ccccc4)cc3)NC(=O)[C@H](Cc3ccc(OCC(=O)O)cc3)NC2=O)c1 (stereo partly drawn) [Compound 3844] ({CH2CO}-[Thr(3ξ)]Y(Carboxymethyl)D[Phe(3-Me)]Y(Carboxymethyl)[Bip]Y(Carboxymethyl)[Orn][dL][Dab][Cha][Val(3-OH)]SC[Dab]-{NH(CH2)12COOH}; thioether N-14) | 15.2
4 | CC(C)C[C@H]1NC(=O)[C@H](CCCN)NC(=O)[C@H](Cc2ccc(C(=O)O)cc2)NC(=O)[C@H](Cc2ccc(-c3ccccc3)cc2)NC(=O)[C@H](Cc2ccc(C(=O)O)cc2)NC(=O)[C@H](Cc2cccc(C(F)(F)F)c2)NC(=O)[C@H](CC(=O)O)NC(=O)[C@H](Cc2ccc(OCC(=O)O)cc2)NC(=O)[C@H](Cc2ccc(OCC(=O)O)cc2)NC(=O)CSC[C@@H](C(=O)N[C@@H](CCN)C(=O)NCCCCCCCCCCCCCCC(=O)O)NC(=O)[C@H](CC(=O)O)NC(=O)[C@H](C(C)C)NC(=O)[C@H](CC2CCCCC2)NC(=O)[C@H](CCN)NC1=O [Compound 3848] ({CH2CO}-Y(Carboxymethyl)Y(Carboxymethyl)D[Phe(3-CF3)][Phe(4-COOH)][Bip][Phe(4-COOH)][Orn][dL][Dab][Cha]VDC[Dab]-{NH(CH2)14COOH}; thioether N-14) | 317
5 | CC(C)C[C@H]1NC(=O)[C@H](CCCN)NC(=O)[C@H](Cc2ccc(C(=O)O)cc2)NC(=O)[C@H](Cc2ccc(-c3ccccc3)cc2)NC(=O)[C@H](Cc2ccc(C(=O)O)cc2)NC(=O)[C@H](Cc2cccc(C(F)(F)F)c2)NC(=O)[C@H](CC(=O)O)NC(=O)[C@H](Cc2ccc(OCC(=O)O)cc2)NC(=O)[C@H](Cc2ccc(OCC(=O)O)cc2)NC(=O)CSC[C@@H](C(=O)N[C@@H](CCN)C(=O)NCCCCCCCCCCCCCCC(=O)O)NC(=O)[C@H](CCC(=O)O)NC(=O)[C@H](C(C)C)NC(=O)[C@H](CC2CCCCC2)NC(=O)[C@H](CCN)NC1=O [Compound 3849] ({CH2CO}-Y(Carboxymethyl)Y(Carboxymethyl)D[Phe(3-CF3)][Phe(4-COOH)][Bip][Phe(4-COOH)][Orn][dL][Dab][Cha]VEC[Dab]-{NH(CH2)14COOH}; thioether N-14) | 250
6 | CC(=O)NCCCC[C@@H]1NC(=O)[C@H](C(C)(C)O)NC(=O)[C@H](CC2CCCCC2)NC(=O)[C@H](CCN)NC(=O)[C@@H](CC(C)C)NC(=O)[C@H](CCCN)NC(=O)[C@H](Cc2ccc(OCC(=O)O)cc2)NC(=O)[C@H](Cc2ccc(-c3ccccc3)cc2)NC(=O)[C@H](Cc2ccc(OCC(=O)O)cc2)NC(=O)[C@H](Cc2cccc(C(F)(F)F)c2)NC(=O)[C@H](CC(=O)O)NC(=O)[C@H](Cc2ccc(OCC(=O)O)cc2)NC(=O)[C@H](Cc2ccc(OCC(=O)O)cc2)NC(=O)CSC[C@@H](C(=O)N[C@@H](CCN)C(=O)NCCOCCOCC(=O)NCCCCCCCCCCCCCCC(=O)O)NC1=O [Compound 3850] ({CH2CO}-Y(Carboxymethyl)Y(Carboxymethyl)D[Phe(3-CF3)]Y(Carboxymethyl)[Bip]Y(Carboxymethyl)[Orn][dL][Dab][Cha][Val(3-OH)]K(Ac)C[Dab][AEEA]-{NH(CH2)14COOH}; thioether N-14) | 282
7 | Cc1cccc(C[C@@H]2NC(=O)[C@H](CC(=O)O)NC(=O)[C@H](Cc3ccc(OCC(=O)O)cc3)NC(=O)[C@H](C)NC(=O)CSC[C@@H](C(=O)N[C@@H](CCN)C(=O)NCCOCCOCC(=O)NCCCCCCCCCCCCCCC(=O)O)NC(=O)[C@H](Cc3cnc[nH]3)NC(=O)[C@H](C(C)(C)O)NC(=O)[C@H](CC3CCCCC3)NC(=O)[C@H](CCN)NC(=O)[C@@H](CC(C)C)NC(=O)[C@H](CCCN)NC(=O)[C@H](Cc3ccc(OCC(=O)O)cc3)NC(=O)[C@H](Cc3ccc(-c4ccccc4)cc3)NC(=O)[C@H](Cc3ccc(OCC(=O)O)cc3)NC2=O)c1 [Compound 3851] ({CH2CO}-AY(Carboxymethyl)D[Phe(3-Me)]Y(Carboxymethyl)[Bip]Y(Carboxymethyl)[Orn][dL][Dab][Cha][Val(3-OH)]HC[Dab][AEEA]-{NH(CH2)14COOH}; thioether N-14) | 125
8 | CC(C)C[C@H]1NC(=O)[C@H](CCCN)NC(=O)[C@H](Cc2ccc(OCC(=O)O)cc2)NC(=O)[C@H](Cc2ccc(-c3ccccc3)cc2)NC(=O)[C@H](Cc2ccc(OCC(=O)O)cc2)NC(=O)[C@H](Cc2cccc(C(F)(F)F)c2)NC(=O)[C@H](CC(=O)O)NC(=O)[C@H](Cc2ccc(OCC(=O)O)cc2)NC(=O)[C@H](C)NC(=O)CSC[C@@H](C(=O)N[C@@H](CCN)C(=O)NCCCCCCCCCCCCCCC(=O)O)NC(=O)[C@H](Cc2cnc[nH]2)NC(=O)[C@H](C(C)(C)O)NC(=O)[C@H](CC2CCCCC2)NC(=O)[C@H](CCN)NC1=O [Compound 3852] ({CH2CO}-AY(Carboxymethyl)D[Phe(3-CF3)]Y(Carboxymethyl)[Bip]Y(Carboxymethyl)[Orn][dL][Dab][Cha][Val(3-OH)]HC[Dab]-{NH(CH2)14COOH}; thioether N-14) | 142
9 | Cc1cccc(C[C@@H]2NC(=O)[C@H](CC(=O)O)NC(=O)[C@H](Cc3ccc(OCC(=O)O)cc3)NC(=O)[C@H](C)NC(=O)CSC[C@@H](C(=O)N[C@@H](CCN)C(=O)NCCOCCOCC(=O)NCCOCCOCC(=O)NCCCCCCCCCCCCCCC(=O)O)NC(=O)[C@H](CO)NC(=O)[C@H](C(C)(C)O)NC(=O)[C@H](CC3CCCCC3)NC(=O)[C@H](CCN)NC(=O)[C@@H](CC(C)C)NC(=O)[C@H](CCCN)NC(=O)[C@H](Cc3ccc(C(=O)O)cc3)NC(=O)[C@H](Cc3ccc(-c4ccccc4)cc3)NC(=O)[C@H](Cc3ccc(C(=O)O)cc3)NC2=O)c1 [Compound 3853] ({CH2CO}-AY(Carboxymethyl)D[Phe(3-Me)][Phe(4-COOH)][Bip][Phe(4-COOH)][Orn][dL][Dab][Cha][Val(3-OH)]SC[Dab][AEEA][AEEA]-{NH(CH2)14COOH}; thioether N-14) | 104
10 | Cc1cccc(C[C@@H]2NC(=O)[C@H](CC(=O)O)NC(=O)[C@H](Cc3ccc(OCC(=O)O)cc3)NC(=O)[C@H](C)NC(=O)CSC[C@@H](C(=O)N[C@@H](CCN)C(=O)NCCOCCOCC(=O)NCCOCCOCC(=O)NCCOCCOCC(=O)NCCCCCCCCCCCCCCC(=O)O)NC(=O)[C@H](CO)NC(=O)[C@H](C(C)(C)O)NC(=O)[C@H](CC3CCCCC3)NC(=O)[C@H](CCN)NC(=O)[C@@H](CC(C)C)NC(=O)[C@H](CCCN)NC(=O)[C@H](Cc3ccc(C(=O)O)cc3)NC(=O)[C@H](Cc3ccc(-c4ccccc4)cc3)NC(=O)[C@H](Cc3ccc(C(=O)O)cc3)NC2=O)c1 [Compound 3854] ({CH2CO}-AY(Carboxymethyl)D[Phe(3-Me)][Phe(4-COOH)][Bip][Phe(4-COOH)][Orn][dL][Dab][Cha][Val(3-OH)]SC[Dab][AEEA][AEEA][AEEA]-{NH(CH2)14COOH}; thioether N-14) | 45.2
11 | Cc1cccc(C[C@@H]2NC(=O)[C@H](CC(=O)O)NC(=O)[C@H](Cc3ccc(OCC(=O)O)cc3)NC(=O)[C@H](C)NC(=O)CSC[C@@H](C(=O)N[C@@H](CCN)C(=O)NCCOCCOCC(=O)NCCOCCOCC(=O)NCCCCCCCCCCCCCCC(=O)O)NC(=O)[C@H](Cc3cnc[nH]3)NC(=O)[C@H](C(C)(C)O)NC(=O)[C@H](CC3CCCCC3)NC(=O)[C@H](CCN)NC(=O)[C@@H](CC(C)C)NC(=O)[C@H](CCCN)NC(=O)[C@H](Cc3ccc(C(=O)O)cc3)NC(=O)[C@H](Cc3ccc(-c4ccccc4)cc3)NC(=O)[C@H](Cc3ccc(C(=O)O)cc3)NC2=O)c1 [Compound 3855] ({CH2CO}-AY(Carboxymethyl)D[Phe(3-Me)][Phe(4-COOH)][Bip][Phe(4-COOH)][Orn][dL][Dab][Cha][Val(3-OH)]HC[Dab][AEEA][AEEA]-{NH(CH2)14COOH}; thioether N-14) | 119
